Test results taken from patent US6737383B1, “Herbicidal oxadiazolidines” (priority 1999, dated 2004).

Tests used:
bedstraw = test: Test B pre/postemergence bedstraw; format: in vivo, Galium aparine; settings: for Plant response rating, Bedstraw: Rate 62 g/ha, scale of 0 to 10 where 0 is no effect and 10 is complete control
How it was run: (§1)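 Test chemicals in a non-phytotoxic solvent mixture with surfactant were sprayed preemergence onto planted seeds and postemergence onto plants 2 to 18 cm tall (1- to 4-leaf stage). After twelve to sixteen days in a greenhouse, injury was visually rated against untreated controls from 0 (no effect) to 10 (complete control).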

cocklebur = test: Test B pre/postemergence cocklebur; format: in vivo, Xanthium strumarium
How it was run: as §1

wheat = test: Test B pre/postemergence wheat; format: in vivo, Triticum aestivum
How it was run: as §1

blackgrass = test: Test B pre/postemergence blackgrass; format: in vivo, Alopecurus myosuroides
How it was run: as §1

rape = test: Test B pre/postemergence rape; format: in vivo, Brassica napus
How it was run: as §1

pigweed = test: Test B pre/postemergence pigweed; format: in vivo, Amaranthus retroflexus
How it was run: as §1

purple nutsedge = test: Test B pre/postemergence purple nutsedge; format: in vivo, Cyperus rotundus
How it was run: as §1

giant foxtail = test: Test B pre/postemergence giant foxtail; format: in vivo, Setaria faberii
How it was run: as §1

velvetleaf = test: Test B pre/postemergence velvetleaf; format: in vivo, Abutilon theophrasti
How it was run: as §1

soybean = test: Test B pre/postemergence soybean; format: in vivo, Glycine max
How it was run: as §1

morningglory = test: Test B pre/postemergence morningglory; format: in vivo, Ipomoea hederacea
How it was run: as §1

surinam grass = test: Test B pre/postemergence surinam grass; format: in vivo, Brachiaria decumbens
How it was run: as §1

sugar beet = test: Test B pre/postemergence sugar beet; format: in vivo, Beta vulgaris
How it was run: as §1

corn = test: Test B pre/postemergence corn; format: in vivo, Zea mays
How it was run: as §1

crabgrass = test: Test B pre/postemergence crabgrass; format: in vivo, Digitaria sanguinalis
How it was run: as §1

wild oat = test: Test B pre/postemergence wild oat; format: in vivo, Avena fatua
How it was run: as §1

[1] = Postemergence, Rate 125 g/ha, scale 0 to 10, 0 is no effect, 10 is complete control
[2] = Postemergence, Rate 250 g/ha, scale 0 to 10
[3] = Preemergence, Rate 125 g/ha, scale 0 to 10, 0 is no effect, 10 is complete control
[4] = Preemergence, Rate 250 g/ha, scale 0 to 10, 0 is no effect, 10 is complete control
[5] = Preemergence, Rate 500 g/ha, scale 0 to 10, 0 is no effect, 10 is complete control
[6] = Postemergence, Rate 62 g/ha, scale of 0 to 10, 0 is no effect, 10 is complete control
[7] = Postemergence, Rate 500 g/ha, scale 0 to 10, 0 is no effect, 10 is complete control
[8] = Preemergence, Rate 62 g/ha, scale of 0 to 10 where 0 is no effect and 10 is complete control
[9] = Preemergence, Rate 500 g/ha, scale of 0 to 10 where 0 is no effect and 10 is complete control

With CC(C)N(C(=O)n1oc(=O)n(CCCF)c1=O)c1ccc(F)cc1F [Compound 500] the “Bedstraw plant response rating” value (bedstraw; [1]) was 9, the “Bedstraw plant response rating” value (bedstraw; [2]) was 9 and the “Plant response rating, Bedstraw” value (bedstraw; Preemergence) was 8. For the same compound, the “Bedstraw plant response rating” value (bedstraw; [3]) was 9, the “Bedstraw plant response rating” value (bedstraw; [4]) was 9 and the “Bedstraw plant response rating” value (bedstraw; [5]) was 10. For the same compound, the “Cocklebur plant response rating” value (cocklebur; [6]) was 3, the “Cocklebur plant response rating” value (cocklebur; [1]) was 3 and the “Cocklebur plant response rating” value (cocklebur; [2]) was 3. For the same compound, the “Plant response rating, Cocklebur” value (cocklebur; [7]) was 5, the “Plant response rating, Cocklebur” value (cocklebur; [8]) was 0 and the “Cocklebur plant response rating” value (cocklebur; [3]) was 0. For the same compound, the “Cocklebur plant response rating” value (cocklebur; [4]) was 2, the “Cocklebur plant response rating” value (cocklebur; [9]) was 2 and the “Wheat plant response rating” value (wheat; [6]) was 0. The “Plant response rating, Wheat” value (wheat; [7]) was 5, the “Plant response rating, Wheat” value (wheat; [8]) was 2 and the “Wheat plant response rating” value (wheat; [3]) was 6. The “Wheat plant response rating” value (wheat; [9]) was 8, the “Blackgrass plant response rating” value (blackgrass; [6]) was 3 and the “Blackgrass plant response rating” value (blackgrass; [1]) was 4. The “Blackgrass plant response rating” value (blackgrass; [2]) was 6, the “Plant response rating, Blackgrass” value (blackgrass; [7]) was 6 and the “Plant response rating, Blackgrass” value (blackgrass; [8]) was 9. The “Blackgrass plant response rating” value (blackgrass; [3]) was 9, the “Blackgrass plant response rating” value (blackgrass; [4]) was 10 and the “Blackgrass plant response rating” value (blackgrass; [9]) was 10. For the same compound, the “Rape plant response rating” value (rape; [6]) was 3, the “Rape plant response rating” value (rape; [1]) was 3 and the “Plant response rating, Rape” value (rape; [7]) was 8. For the same compound, the “Plant response rating, Rape” value (rape; [8]) was 9, the “Rape plant response rating” value (rape; [3]) was 10 and the “Rape plant response rating” value (rape; [9]) was 10. The “Redroot pigweed plant response rating” value (pigweed; [6]) was 7, the “Redroot pigweed plant response rating” value (pigweed; [1]) was 9 and the “Plant response rating, Redroot pigweed” value (pigweed; [7]) was 10. For the same compound, the “Plant response rating, Redroot pigweed” value (pigweed; [8]) was 10, the “Redroot pigweed plant response rating” value (pigweed; [3]) was 10 and the “Redroot pigweed plant response rating” value (pigweed; [9]) was 10. The “Nutsedge plant response rating” value (purple nutsedge; [6]) was 0, the “Plant response rating, Nutsedge” value (purple nutsedge; [7]) was 2 and the “Plant response rating, Nutsedge” value (purple nutsedge; [8]) was 0. For the same compound, the “Nutsedge plant response rating” value (purple nutsedge; [3]) was 8, the “Nutsedge plant response rating” value (purple nutsedge; [9]) was 10 and the “Giant foxtail plant response rating” value (giant foxtail; [6]) was 7. The “Giant foxtail plant response rating” value (giant foxtail; [1]) was 8, the “Plant response rating, Giant foxtail” value (giant foxtail; [7]) was 9 and the “Plant response rating, Giant foxtail” value (giant foxtail; [8]) was 9. For the same compound, the “Giant foxtail plant response rating” value (giant foxtail; [3]) was 10, the “Giant foxtail plant response rating” value (giant foxtail; [9]) was 10 and the “Velvetleaf plant response rating” value (velvetleaf; [6]) was 4. The “Velvetleaf plant response rating” value (velvetleaf; [1]) was 4, the “Plant response rating, Velvetleaf” value (velvetleaf; [7]) was 5 and the “Plant response rating, Velvetleaf” value (velvetleaf; [8]) was 5. The “Velvetleaf plant response rating” value (velvetleaf; [3]) was 8, the “Velvetleaf plant response rating” value (velvetleaf; [9]) was 10 and the “Soybean plant response rating” value (soybean; [6]) was 3. The “Soybean plant response rating” value (soybean; [1]) was 4, the “Plant response rating, Soybean” value (soybean; [7]) was 4 and the “Plant response rating, Soybean” value (soybean; [8]) was 0. For the same compound, the “Soybean plant response rating” value (soybean; [3]) was 3, the “Soybean plant response rating” value (soybean; [9]) was 8 and the “Morningglory plant response rating” value (morningglory; [6]) was 3. The “Morningglory plant response rating” value (morningglory; [1]) was 3, the “Plant response rating, Morningglory” value (morningglory; [7]) was 3 and the “Plant response rating, Morningglory” value (morningglory; [8]) was 0. For the same compound, the “Morningglory plant response rating” value (morningglory; [3]) was 5, the “Morningglory plant response rating” value (morningglory; [9]) was 9 and the “B. signalgrass plant response rating” value (surinam grass; [6]) was 3. The “B. signalgrass plant response rating” value (surinam grass; [1]) was 5, the “B. signalgrass plant response rating” value (surinam grass; Postemergence, Rate 250 g/ha, scale 0 to 10, 0 no effect, 10 complete control) was 7 and the “Plant response rating, B. signalgrass” value (surinam grass; [7]) was 8. The “Plant response rating, B. signalgrass” value (surinam grass; [8]) was 9, the “B. signalgrass plant response rating” value (surinam grass; [3]) was 9 and the “B. signalgrass plant response rating” value (surinam grass; [4]) was 9. For the same compound, the “B. signalgrass plant response rating” value (surinam grass; [5]) was 10, the “Sugarbeets plant response rating” value (sugar beet; [6]) was 6 and the “Sugarbeets plant response rating” value (sugar beet; [1]) was 6. For the same compound, the “Plant response rating, Sugarbeets” value (sugar beet; [7]) was 9, the “Plant response rating, Sugarbeets” value (sugar beet; [8]) was 9 and the “Sugarbeets plant response rating” value (sugar beet; [3]) was 10. The “Sugarbeets plant response rating” value (sugar beet; [9]) was 10, the “Corn plant response rating” value (corn; [6]) was 2 and the “Corn plant response rating” value (corn; [1]) was 2. The “Corn plant response rating” value (corn; [2]) was 2, the “Plant response rating, Corn” value (corn; [7]) was 6 and the “Plant response rating, Corn” value (corn; [8]) was 0. For the same compound, the “Corn plant response rating” value (corn; [3]) was 5, the “Corn plant response rating” value (corn; [9]) was 8 and the “Crabgrass plant response rating” value (crabgrass; [6]) was 6. For the same compound, the “Crabgrass plant response rating” value (crabgrass; [1]) was 9, the “Crabgrass plant response rating” value (crabgrass; [2]) was 8 and the “Plant response rating, Crabgrass” value (crabgrass; [7]) was 9. For the same compound, the “Plant response rating, Crabgrass” value (crabgrass; [8]) was 7, the “Crabgrass plant response rating” value (crabgrass; [3]) was 9 and the “Crabgrass plant response rating” value (crabgrass; [9]) was 10. For the same compound, the “Wild oats plant response rating” value (wild oat; [6]) was 0, the “Wild oats plant response rating” value (wild oat; [1]) was 0 and the “Plant response rating, Wild oats” value (wild oat; [7]) was 7. For the same compound, the “Plant response rating, Wild oats” value (wild oat; [8]) was 7, the “Wild oats plant response rating” value (wild oat; [3]) was 9 and the “Wild oats plant response rating” value (wild oat; [9]) was 10.
In the case of COCn1c(=O)on(C(=O)N(c2ccc(F)cc2F)C(C)C)c1=O [Compound 503], the “Plant response rating, Bedstraw” value (bedstraw; Preemergence) is reported as 5, the “Bedstraw plant response rating” value (bedstraw; [3]) is reported as 5 and the “Bedstraw plant response rating” value (bedstraw; [4]) is reported as 6. The “Bedstraw plant response rating” value (bedstraw; [5]) was 10, the “Plant response rating, Cocklebur” value (cocklebur; [8]) was 0 and the “Cocklebur plant response rating” value (cocklebur; [3]) was 0. The “Cocklebur plant response rating” value (cocklebur; [4]) was 0, the “Cocklebur plant response rating” value (cocklebur; [9]) was 3 and the “Plant response rating, Wheat” value (wheat; [8]) was 0. For the same compound, the “Wheat plant response rating” value (wheat; [3]) was 2, the “Wheat plant response rating” value (wheat; [9]) was 8 and the “Plant response rating, Blackgrass” value (blackgrass; [8]) was 10. The “Blackgrass plant response rating” value (blackgrass; [3]) was 9, the “Blackgrass plant response rating” value (blackgrass; [4]) was 9 and the “Blackgrass plant response rating” value (blackgrass; [9]) was 10. For the same compound, the “Plant response rating, Rape” value (rape; [8]) was 4, the “Rape plant response rating” value (rape; [3]) was 8 and the “Rape plant response rating” value (rape; [9]) was 9. The “Plant response rating, Redroot pigweed” value (pigweed; [8]) was 8, the “Redroot pigweed plant response rating” value (pigweed; [3]) was 10 and the “Redroot pigweed plant response rating” value (pigweed; [9]) was 10. For the same compound, the “Plant response rating, Nutsedge” value (purple nutsedge; [8]) was 0, the “Nutsedge plant response rating” value (purple nutsedge; [3]) was 0 and the “Nutsedge plant response rating” value (purple nutsedge; [9]) was 2. The “Plant response rating, Giant foxtail” value (giant foxtail; [8]) was 9, the “Giant foxtail plant response rating” value (giant foxtail; [3]) was 9 and the “Giant foxtail plant response rating” value (giant foxtail; [9]) was 10. For the same compound, the “Plant response rating, Velvetleaf” value (velvetleaf; [8]) was 6, the “Velvetleaf plant response rating” value (velvetleaf; [3]) was 6 and the “Velvetleaf plant response rating” value (velvetleaf; [9]) was 8. For the same compound, the “Plant response rating, Soybean” value (soybean; [8]) was 2, the “Soybean plant response rating” value (soybean; [3]) was 3 and the “Soybean plant response rating” value (soybean; [9]) was 7. The “Plant response rating, Morningglory” value (morningglory; [8]) was 2, the “Morningglory plant response rating” value (morningglory; [3]) was 2 and the “Morningglory plant response rating” value (morningglory; [9]) was 7. The “Plant response rating, B. signalgrass” value (surinam grass; [8]) was 6, the “B. signalgrass plant response rating” value (surinam grass; [3]) was 8 and the “B. signalgrass plant response rating” value (surinam grass; [4]) was 8. The “B. signalgrass plant response rating” value (surinam grass; [5]) was 9, the “Plant response rating, Sugarbeets” value (sugar beet; [8]) was 2 and the “Sugarbeets plant response rating” value (sugar beet; [3]) was 6. For the same compound, the “Sugarbeets plant response rating” value (sugar beet; [9]) was 9, the “Plant response rating, Corn” value (corn; [8]) was 3 and the “Corn plant response rating” value (corn; [3]) was 5. For the same compound, the “Corn plant response rating” value (corn; [9]) was 9, the “Plant response rating, Crabgrass” value (crabgrass; [8]) was 8 and the “Crabgrass plant response rating” value (crabgrass; [3]) was 8. The “Crabgrass plant response rating” value (crabgrass; [9]) was 9, the “Plant response rating, Wild oats” value (wild oat; [8]) was 6 and the “Wild oats plant response rating” value (wild oat; [3]) was 10. For the same compound, the “Wild oats plant response rating” value (wild oat; [9]) was 9.
